Results taken from patent US12419306B2, “Mesostigmata mite control composition” (MEIJI SEIKA PHARMA CO., LTD., priority 2018, dated 2025).

Tests used:
Type in all cases: in vivo
[1] = tested on: red mites (Dermanyssus gallinae); assay: Test Example 2: Control Effect 2 on Red Mites, Pasteur pipette contact test, 3 hours; settings: unfed adult red mites
Experimental: One minute later, the Parafilm at the tip was detached, and the liquid agent was discharged. […] Then, the ratio (%) of dead and affected mites was calculated according to the following formula.

[2] = tested on: red mites (Dermanyssus gallinae); assay: Test Example 3: Control Effect 3 on Red Mites, Pasteur pipette contact test, 3 hours; settings: unfed adult red mites
From the text: The tip of a Pasteur pipette was sealed with Parafilm, and a methanol solution of the compound represented by the formula (11), the compound represented by the formula (12), or flupyrimin (single agent), or a mixture (mixed agents) of the compound represented by the formula (11) or the compound represented by the formula (12) and flupyrimin at a predetermined concentration was poured into the pipette from an upper portion thereof. One minute later, the Parafilm at the tip was removed, and the liquid agent was discharged. After the pipette was air dried, absorbent cotton was inserted to an upper end of the pipette, and 20 unfed adult red mites (Dermanyssus gallinae) were released into the pipette. After the tip was sealed with Hemato-Seal, the pipette was stored in the dark in an incubator at a temperature of 27 to 28° C. and a humidity of 50 to 60%. After 3 hours had passed since the treatment, the mites were observed under a stereomicroscope to determine whether the mites were dead or alive and whether the mites were affected. Then, the ratio (%) of dead and affected mites was calculated according to the following formula. The ratio (%) of dead and affected mites={(the number of dead mites+the number of affected mites)/(the number of survived mites+the number of affected mites+the number of dead mites)}×100

[3] = tested on: red mites (Dermanyssus gallinae); assay: Test Example 1: Control Effect 1 on Red Mites, Pasteur pipette contact test, 72 hours; settings: for Ratio of dead and affected mites: 72 hours, unfed adult red mites
From the text: The tip of a Pasteur pipette was sealed with Parafilm, and a methanol solution of the compound A, or each pesticide (another pesticide) (single agent) described in the left columns of Tables 2, 4, and 6 described below, or a mixture (mixed agent) of the compound A and each pesticide described in the left column of Tables 2, 4, and 6 described below at a predetermined concentration was poured into the pipette through an upper portion thereof. One minute later, the Parafilm at the tip was detached, and the liquid agent was discharged. After the pipette was air dried, absorbent cotton was inserted to an upper end of the pipette, and 20 unfed adult red mites (Dermanyssus gallinae) were released into the pipette. After the tip was sealed with Hemato-Seal, the pipette was stored in the dark in an incubator at a temperature of 27 to 28° C. and a humidity of 50 to 60%. […] Then, the ratio (%) of dead and affected mites was calculated according to the following formula. The ratio (%) of dead and affected mites={(the number of dead mites+the number of affected mites)/(the number of survived mites+the number of affected mites+the number of dead mites)}×100

[4] = Dermanyssus gallinae, 72 h, read-out: Ratio of dead and affected mites

Compound: COC(=O)Oc1c(C)c(C)nc2ccc(F)c(F)c12 [Formula (13)]
- Ratio of dead and affected mites ([1]; single agent 10 ppm): 89.9%

Compound: CCc1nc2ccc(F)c(F)c2c(OC(=O)OC)c1C [Formula (12)]
- Ratio of dead and affected mites ([1]; single agent 10 ppm): 50.0%
- Ratio of dead and affected mites ([1]; single agent 20 ppm): 65.5%
- Ratio of dead and affected mites ([2]; single agent 20 ppm): 65.5%

Compound: CNC(=O)Oc1ccccc1OC(C)C [Propoxur, propoxur]
- pest or weed control at 200 ppm [3, 4]: 77.9%

Compound: O=C(N=c1ccccn1Cc1ccc(Cl)nc1)C(F)(F)F [Flupyrimin, flupyrimin]
- Ratio of dead and affected mites ([3]; single agent 50 ppm): 65.3%
- Ratio of dead and affected mites ([3]; single agent 200 ppm): 58.6%
- Ratio of dead and affected mites ([3]; single agent 1000 ppm): 83.2%
- Ratio of dead and affected mites ([3]; single agent 5000 ppm): 75.0%
- Ratio of dead and affected mites ([2]; single agent 50 ppm): 48.8%
- Ratio of dead and affected mites ([2]; single agent 200 ppm): 48.5%
- Ratio of dead and affected mites ([2]; single agent 1000 ppm): 40.9%

Compound: CC(C)=CC1C(C(=O)OCc2cccc(Oc3ccccc3)c2)C1(C)C (stereo not drawn) [Phenothrin, phenothrin]
- pest or weed control at 500 ppm [3, 4]: 65.2%

Compound: CNC(=O)Oc1cccc2ccccc12 [Carbaryl, carbaryl]
- pest or weed control at 50 ppm [3, 4]: 46.6%

Compound: COP(=O)(OC)C(O)C(Cl)(Cl)Cl (stereo not drawn) [Trichlorfon, trichlorfon]
- pest or weed control at 200 ppm [3, 4]: 84.7%

Compound: CC1(C)C(C=C(Cl)Cl)C1C(=O)OCc1cccc(Oc2ccccc2)c1 (stereo not drawn) [Permethrin, permethrin]
- pest or weed control at 50 ppm [3, 4]: 49.6%

Compound: CC1(C)[C@H](C(=O)O[C@H](C#N)c2cccc(Oc3ccccc3)c2)[C@@H]1C=C(Br)Br [Deltamethrin, deltamethrin]
- pest or weed control at 50 ppm [3, 4]: 75.8%

Compound: CNC(=O)Oc1cccc2c1OC(C)(C)O2 [Bendiocarb, bendiocarb]
- pest or weed control at 50 ppm [3, 4]: 30.5%

Compound: CC(C)=CC1C(C(=O)OCN2C(=O)C3=C(CCCC3)C2=O)C1(C)C (stereo not drawn) [Tetramethrin, tetramethrin (phthalthrin)]
- pest or weed control at 10 ppm [3, 4]: 39.8%

Compound: CCc1nc2ccc(F)c(F)c2c(OC(=O)C2CC2)c1C [Formula (11)]
- Ratio of dead and affected mites ([1]; single agent 5 ppm): 53.7%
- Ratio of dead and affected mites ([1]; single agent 10 ppm): 53.4%
- Ratio of dead and affected mites ([1]; single agent 20 ppm): 62.9%
- Ratio of dead and affected mites ([2]; single agent 10 ppm): 53.4%
- Ratio of dead and affected mites ([2]; single agent 20 ppm): 62.9%

Compound: abamectin
- Ratio of dead and affected mites ([3]; single agent 50 ppm): 69.9%

Compound: CCC(C)c1ccccc1OC(=O)NC (stereo not drawn) [Fenobucarb, fenobucarb]
- pest or weed control at 50 ppm [3, 4]: 43.5%

Compound: COP(=S)(OC)Oc1ccc([N+](=O)[O-])c(C)c1 [Fenitrothion, fenitrothion]
- pest or weed control at 200 ppm [3, 4]: 71.8%
